In PubChem BioAssay (NCI):
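Five concentrations, 48 hours, 96-well plates. The concentration for 50% growth inhibition is given as GI50. TGI: concentration producing complete growth inhibition.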

Experiments:
Assay in all cases: NCI tumour cell line growth inhibition, 48 h
DLD-1 colon = tested on: DLD-1 colon
DMS 273 small cell lung = tested on: DMS 273 small cell lung
LXFL 529 NSCLC = tested on: LXFL 529 NSCLC
XF 498 CNS = tested on: XF 498 CNS
HOP-18 NSCLC = tested on: HOP-18 NSCLC
KM20L2 colon = tested on: KM20L2 colon
M19-MEL melanoma = tested on: M19-MEL melanoma
RXF-631 renal = tested on: RXF-631 renal
MDA-N = tested on: MDA-N

Row | SMILES | TGI (DLD-1 colon) | TGI (DMS 273 small cell lung) | TGI (LXFL 529 NSCLC) | TGI (XF 498 CNS) | TGI (HOP-18 NSCLC) | TGI (KM20L2 colon) | TGI (M19-MEL melanoma) | TGI (RXF-631 renal) | further results
1 | CN(C)CCNc1nc(-c2cccs2)cc(-c2cccs2)n1 | 55.1 µM | 24.4 µM | 28.1 µM | 12.1 µM | – | – | – | – | –
2 | Nc1ccc(C(=O)N/C(=C\c2cccc([N+](=O)[O-])c2)c2nc3c4c(ccc3[nH]2)C(=O)c2ccccc2C4=O)cc1 | > 100 µM | > 100 µM | > 100 µM | > 100 µM | > 100 µM | > 100 µM | > 100 µM | > 100 µM | –
3 | C#CCN(C)C(=O)N(CC#C)N=O | > 100 µM | > 100 µM | > 100 µM | – | > 100 µM | > 100 µM | > 100 µM | > 100 µM | –
4 | O=C(Nc1cccc(C(F)(F)F)c1)c1cc(Br)cc(Br)c1O | – | – | – | – | – | – | – | – | TGI (MDA-N): > 10 µM
5 | COc1ccc2c(c1)OCCC1=C2SCC2(C)CCN=C12 (stereo unspecified) | > 100 µM | > 100 µM | > 100 µM | > 100 µM | > 100 µM | > 100 µM | – | – | –
6 | Cc1cc(O)c(C(c2ccncc2)c2c(O)cc(C)[nH]c2=O)c(=O)[nH]1 | – | – | – | – | – | – | – | – | TGI (MDA-N): > 100 µM
7 | COc1ccc2nc3cccc(C(=O)NCCN(C)C)c3nc2c1 | 5.12 µM | > 100 µM | – | 0.696 µM | > 21.8 µM | 6.46 µM | 3.5 µM | > 100 µM | –
8 | Cc1cc(O)cc2c1c(=O)c1ccccc1n2C | – | – | – | – | – | – | – | – | TGI (MDA-N): > 100 µM
9 | COc1ccc(C(=O)O/N=C2/CCC/C2=C\c2ccccc2)cc1 | > 100 µM | > 100 µM | > 100 µM | > 100 µM | > 100 µM | > 100 µM | > 100 µM | > 100 µM | –
10 | Nc1c(-c2nc3ccccc3[nH]2)sc(=S)n1-c1ccc(Cl)cc1 | > 100 µM | 39.8 µM | – | 52.4 µM | 38.6 µM | – | 84.2 µM | – | –
11 | Cn1cc(NC(=O)c2cc(NC(=O)CCCCCCC(=O)Nc3cc(C(=O)Nc4cc(C(=O)NCCC(=N)N)n(C)c4)n(C)c3)cn2C)cc1C(=O)NCCC(=N)N | > 100 µM | 12.7 µM | 38.4 µM | 83 µM | > 100 µM | > 100 µM | 8.89 µM | – | –
12 | NCP(=O)(O)OCC(=O)O | > 100 µM | > 100 µM | > 100 µM | > 100 µM | > 100 µM | – | – | – | –
13 | Nc1nc(N)c(-c2ccccc2)c(CCC(=O)Nc2ccc(Cl)cc2)n1 | > 100 µM | > 100 µM | > 100 µM | – | > 100 µM | > 100 µM | > 100 µM | – | –
14 | CCOC(=O)/N=c1/nc(N(C)C)ss1 | > 100 µM | > 100 µM | > 100 µM | > 100 µM | > 100 µM | > 100 µM | – | > 100 µM | –
15 | Cc1ccc(S(=O)OC23CC4CC(CC(C4)C2)C3)cc1 (stereo unspecified) | > 100 µM | > 100 µM | > 100 µM | > 100 µM | > 100 µM | > 100 µM | > 100 µM | > 100 µM | –
16 | C[n+]1c(N)n(C(=O)OCc2ccccc2)c(=O)c2c1ncn2C(=O)OCc1ccccc1 | > 100 µM | > 100 µM | > 100 µM | – | > 100 µM | > 100 µM | > 100 µM | – | –
17 | N#C/C(=C\c1ccccc1Br)C(=O)c1ccccc1 | – | > 100 µM | > 58.3 µM | > 79.9 µM | – | > 100 µM | > 89.5 µM | > 100 µM | –
18 | Cn1ccnc1C[N-]Cc1nccn1C.O=[N+]([O-])[O-].O=[N+]([O-])[O-].[Cu+2] | > 100 µM | > 100 µM | > 100 µM | – | > 100 µM | > 100 µM | – | – | GI50 (DLD-1 colon): > 100 µM; GI50 (DMS 273 small cell lung): 73.8 µM; GI50 (HOP-18 NSCLC): > 100 µM; GI50 (KM20L2 colon): > 100 µM; GI50 (LXFL 529 NSCLC): > 100 µM
19 | N#Cc1c2c(c(-c3cccs3)n(C3OC(CO)C(O)C(O)C3O)c1=S)CCc1ccccc1-2 (stereo unspecified) | – | – | – | – | – | – | – | – | TGI (MDA-N): > 100 µM

Row | SMILES | TGI (DLD-1 colon) | TGI (DMS 273 small cell lung) | TGI (LXFL 529 NSCLC) | TGI (XF 498 CNS) | TGI (HOP-18 NSCLC) | TGI (KM20L2 colon) | TGI (M19-MEL melanoma) | TGI (RXF-631 renal) | further results
20 | C1C[OH+]CC[OH+]CC[OH+]CC[OH+]CC[OH+]CC[OH+]1.[Cl-].[Nb+5] | – | – | – | – | – | > 100 µM | – | – | GI50 (KM20L2 colon): > 100 µM
21 | CC(C)(C)OC(=O)N1N=NC2C3OC(CC3=O)C21 (stereo unspecified) | > 100 µM | > 100 µM | > 100 µM | – | > 100 µM | > 100 µM | – | > 100 µM | –
22 | C[N+](C)(C)CC1CCCC/C1=N\O (stereo unspecified) | > 100 µM | > 100 µM | > 100 µM | – | > 100 µM | > 100 µM | – | > 100 µM | –
23 | N=C(N)SCCc1ccccn1 | – | – | – | – | – | – | – | – | TGI (MDA-N): > 100 µM
24 | NS(=O)(=O)c1ccc(NC(=O)COC(=O)c2cccc3c(=O)c4ccccc4[nH]c23)cc1 | > 100 µM | > 95.1 µM | 20.9 µM | – | 58.9 µM | > 100 µM | > 100 µM | > 100 µM | –
25 | COc1ccc(/C=N/N=C(\[O-])c2ccncc2)cc1F.COc1ccc(/C=N\N=C(/[O-])c2ccncc2)cc1F.[Cu+2] | – | – | – | – | – | – | – | – | GI50 (MDA-N): 32.7 µM; TGI (MDA-N): > 100 µM
26 | O=C(/C(=C/c1ccccc1)c1ccccc1)N1c2ccccc2CC1c1c[nH]c2ccccc12 (stereo unspecified) | > 100 µM | > 100 µM | > 100 µM | 8.95 µM | – | > 100 µM | > 100 µM | – | –
27 | CCOC(=O)NC(=O)c1c[nH]c(=O)[nH]c1=O | > 100 µM | > 100 µM | > 100 µM | > 100 µM | > 100 µM | > 100 µM | > 100 µM | > 100 µM | –
28 | CC1=C(C(=O)Nc2ccccc2)C(c2ccc(C(C)C)cc2)C(C(=O)Nc2ccccc2)=C(C)N1 | > 100 µM | – | > 67.7 µM | 27 µM | 49.3 µM | 31.7 µM | 35.6 µM | > 85.1 µM | –
29 | Cc1ncc([N+](=O)[O-])n1CCNC(=O)CCCCCn1ccnc1[N+](=O)[O-] | – | – | – | – | – | – | – | – | TGI (MDA-N): > 100 µM
30 | COC(=O)Cc1nc2ccccc2o1 | > 100 µM | > 100 µM | > 100 µM | > 100 µM | > 100 µM | 46.4 µM | > 100 µM | > 100 µM | –
31 | COc1ccc(NC(=O)/C=C(C)/C=C/C=C(C)\C=C\C2=C(C)CCCC2(C)C)cc1 | – | – | – | – | – | – | – | – | GI50 (MDA-N): 55.3 µM; TGI (MDA-N): > 100 µM
32 | CC(=O)CC(=O)/C=C/c1cccs1 | > 100 µM | – | > 100 µM | – | – | > 100 µM | > 100 µM | – | –
33 | O=C(c1ccccc1)C1C(C(=O)c2ccccc2)C(c2ccccc2)N(c2ccccc2)C1c1ccccc1 (stereo unspecified) | – | – | – | – | – | – | – | – | TGI (MDA-N): > 100 µM
34 | COC(=O)C1CC(C(=O)OC)c2nc3cc(C)c(C)cc3nc21 (stereo unspecified) | > 100 µM | > 100 µM | > 100 µM | > 100 µM | > 100 µM | > 100 µM | > 100 µM | > 100 µM | –
35 | NS(=O)(=O)c1ccc(NC(=O)Nc2ccccc2F)cc1 | – | – | – | – | – | – | – | – | TGI (MDA-N): > 100 µM
36 | C1CC[N-]CC1.CC(=N\O)/C(C)=N/O.CC(=N\O)/C(C)=N/O.[CH2-]CCN1CCOCC1.[Co+2] | – | – | – | – | – | – | – | – | GI50 (MDA-N): > 100 µM; TGI (MDA-N): > 100 µM
37 | OCC(O)C(OC1OC(CO)C(O)C(O)C1O)c1nn(-c2ccccc2)c2nc3cc(Cl)ccc3nc12 (stereo unspecified) | > 100 µM | – | > 100 µM | > 100 µM | – | > 100 µM | > 100 µM | – | –
